Earlier results, collected in patent US11793769B2, “Device with compositions for delivery to the lungs, the oral mucosa and the brain” (priority 2014, dated 2023).

Experiments:
[1] = test system: paclitaxel-induced neuropathic pain; conditions: without affecting the efficacy of the chemotherapy
[2] = molecular target: cannabinoid type II receptor (CB2) (Homo sapiens, UniProt P34972); conditions: compared with CB1
[3] = test system: animal models of anxiety and depression; conditions: in vivo

Chain of cannabinoid type II receptor (CB2) (P34972 whole entry, species assumed): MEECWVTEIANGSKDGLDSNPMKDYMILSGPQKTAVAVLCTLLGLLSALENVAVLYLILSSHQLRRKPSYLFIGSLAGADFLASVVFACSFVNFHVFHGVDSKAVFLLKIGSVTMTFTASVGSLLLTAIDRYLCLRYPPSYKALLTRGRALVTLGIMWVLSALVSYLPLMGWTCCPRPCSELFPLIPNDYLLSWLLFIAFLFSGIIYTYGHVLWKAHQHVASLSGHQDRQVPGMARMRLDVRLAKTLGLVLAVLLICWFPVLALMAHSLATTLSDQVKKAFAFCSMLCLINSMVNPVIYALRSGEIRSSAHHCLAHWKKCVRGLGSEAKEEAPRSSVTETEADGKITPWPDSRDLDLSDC

**Q.** With `C=C(C)[C@@H]1CCC(C)=C[C@H]1c1c(O)cc(CCCCC)cc1O` [CBD, cannabidiol] as the compound, how does the “effect on paclitaxel-induced neuropathic pain” value [1] read?
**A.** inhibits paclitaxel-induced neuropathic pain

**Q.** What about the “affinity to CB2” value [2] of the same compound?
**A.** higher affinity

**Q.** What about the “effects in animal models of anxiety and depression” value [3] of the same compound?
**A.** both anti-anxiety and antidepressant effects
